Laboratory results as given in patent US20110281901A1, “PHARMACEUTICAL COMPOSITIONS AND METHODS OF MAKING SAME” (GLAXO WELLCOME MANUFACTURING PTE LTD., priority 2010, published 2011).
≈ marks a conversion by molar mass, not a printed value.

How the values were obtained:
[1] = Solubility of pazopanib free base in phosphate buffer; conditions: 25° C., pH 3.5
physchem = conditions: phosphate buffer, 25 °C, pH 5, aqueous buffer

For `Cc1ccc(Nc2nccc(N(C)c3ccc4c(C)n(C)nc4c3)n2)cc1S(N)(=O)=O` [pazopanib free base, 5-[[4-[(2,3-dimethyl-2H-indazol-6-yl)methylamino]-2-pyrimidinyl]amino]-2-methylbenzenesulfonamide], the approximate solubility [1] was roughly 20000 ng/mL and the solubility (physchem) was roughly 6 ng/mL (≈ 0.0137 µM).
